Source: PMC10064984, “Anti-cyclooxygenase, anti-glycation, and anti-skin aging effect of Dendrobium officinale flowers’ aqueous extract and its phytochemical validation in aging” (Frontiers in Immunology, 2023)
Where “and” joins values, the source holds several entries; their conditions need not be identical. Identical values can stand only once. Like-named read-outs stand apart in the source and are kept apart here.

Tests used:
[1] = ABTS·+ decolourisation capacity; assay type: biochemical; conditions: mean ± SD, n = 3
Method in brief: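 ABTS·+ working solution in 0.2 M phosphate buffer, pH 7.4, was adjusted to A729 0.8 ± 0.05, and 100 μl was mixed with 200 μl sample; absorbance was read at 729 nm after 10 min, in triplicate. Inhibition was taken relative to a phosphate-buffer control, and IC50 was obtained graphically from dose-inhibition curves.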

[2] = FRAP total antioxidant capacity; assay type: biochemical;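 further: colourimetric FRAP kit assay read as absorbance in 96-well plates, values as mM FeSO4 via standard curve, EC1 being sample concentration matching 1.0 mmol/L FeSO4, Trolox positive control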
[3] = Fluorescent AGEs formation in a BSA-fructose/glucose system; assay type: biochemical; conditions: for IC50: mean ± SD, n = 3, read-out: BSA-glycation IC50; for inhibition of fluorescent AGEs formation (BSA-抗糖化), single replicate: individual replicate; for inhibition of fluorescent AGEs formation (BSA-抗糖化), 平均 (mean): mean of 3 replicates
Method in brief: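 BSA glycated in vitro with D-glucose and D-fructose while test samples, dissolved in DMSO:water (1:4), were present. Percent inhibition of fluorescent AGE formation calculated from fluorescence corrected for sample-only and BSA-free blanks; triplicate.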

[4] = Online UPLC-PDA-MS-ABTS·+ scavenging (postcolumn derivatisation); conditions: within DOF extract
Experimental: Online identification of antioxidant components of DOF extract was performed using a UPLC system (Milford, MA, USA) consisting of a Waters photodiode array detector and a Waters postcolumn derivatisation system supplying fresh ABTS solution (UPLC-PDA-QDa-ABTS). […] The detection wavelengths were set at 280 and 734 nm, and the injection volume of the sample was 10 μl.
To detect radical scavengers, the UPLC system was coupled with a Waters pump, which supplied freshly prepared ABTS·+ solution into a reaction coil (15 m, 0.25 mm ID) with a flow rate of 0.2 ml/min at 37°C. Negative peaks were recorded based on a decrease of absorbance at 729 nm after the reaction of individual compounds with the ABTS·+ radical. For preliminary identification of compounds, a Waters Acquity QDa mass detector in negative ionisation mode was connected in series to PDA with the following parameters: electrospray ion source; cone voltage, 15 V; atomiser, N2; and scanning range, 100–800 m/z.

COX-2 = biological target: T1, COX-2 (Homo sapiens, UniProt P35354); test: Anti-COX-2 assay (COX-2 Inhibitor Screening Kit); assay type: biochemical
T1 construct: purchased Beyotime S0168
T1 sequence (P35354 18-604): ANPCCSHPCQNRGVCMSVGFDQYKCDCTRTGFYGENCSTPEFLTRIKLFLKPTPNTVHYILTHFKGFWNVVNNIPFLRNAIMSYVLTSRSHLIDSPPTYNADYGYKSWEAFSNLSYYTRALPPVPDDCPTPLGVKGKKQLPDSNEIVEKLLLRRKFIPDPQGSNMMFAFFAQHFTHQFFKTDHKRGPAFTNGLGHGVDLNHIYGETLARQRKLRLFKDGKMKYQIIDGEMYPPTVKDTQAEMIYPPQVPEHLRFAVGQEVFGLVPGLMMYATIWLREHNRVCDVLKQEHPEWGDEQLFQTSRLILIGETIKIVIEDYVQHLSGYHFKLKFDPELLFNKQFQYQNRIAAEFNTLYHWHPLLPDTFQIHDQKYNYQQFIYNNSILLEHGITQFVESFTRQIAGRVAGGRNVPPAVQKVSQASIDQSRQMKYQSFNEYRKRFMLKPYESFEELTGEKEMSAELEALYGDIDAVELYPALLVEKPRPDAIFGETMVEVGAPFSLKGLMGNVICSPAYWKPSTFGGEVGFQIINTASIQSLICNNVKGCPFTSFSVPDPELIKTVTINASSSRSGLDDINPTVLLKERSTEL

DPPH· scavenging = assay type: biochemical; conditions: mean ± SD, n = 3
[5] = lower part of sheet (compound series)

## O=c1cc(-c2ccc(O)cc2)oc2c(C3OC(CO)C(O)C(O)C3O)c(O)c(C3OC(CO)C(O)C(O)C3O)c(O)c12 (stereo not shown) [compound 10, Vicenin-2]
[1]
  IC50: 74.41 ± 0.69 µM
[2]; [5]
  FRAP EC1: >5000 µM
[3]
  IC50: 258 ± 7.56 µM
[4]
  online ABTS radical scavenging (size of negative peaks at 734 nm): strongest ABTS radical scavengers
COX-2
  COX-2 inhibition (in words): no inhibitory effects
COX-2; 31.25 μM, single replicates
  inhibition at 31.25 µM: 30%
COX-2; 31.25 μM, single replicates, listed as T7, 31.25 µM
  COX-2 inhibition: 20.65% and 19.20%
COX-2; 62.5 μM, single replicates, listed as T7, 62.5 µM
  COX-2 inhibition: -16.69% and -16.14% and 33.41%
COX-2; 125 μM, single replicates, listed as T7, 125 µM
  COX-2 inhibition: -28.47% and -18.44% and 17.41%
COX-2; 250 μM, single replicates, listed as T7, 250 µM
  COX-2 inhibition: -29.84% and -23.37% and -7.75%
COX-2; 500 μM, single replicates, listed as T7, 500 µM
  COX-2 inhibition: -24.98% and -23.56% and -9.18%
COX-2; 1000 μM, single replicates, listed as T7, 1000 µM
  COX-2 inhibition: -59.66% and -32.74% and -11.22%
COX-2; 2000 μM (2mM), single replicates, listed as T7
  COX-2 inhibition: -38.84% and -31.81% and -15.79%
DPPH· scavenging;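 further: colourimetric DPPH radical scavenging in 96-well plates, absorbance read-out, percent inhibition relative to ethanol control absorbance, IC50 derived graphically from dose-inhibition curves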
  IC50: > 5000 µM

## C[C@@H]1O[C@@H](OC[C@H]2O[C@@H](Oc3c(-c4ccc(O)c(O)c4)oc4cc(O)cc(O)c4c3=O)[C@H](O)[C@@H](O)[C@@H]2O)[C@H](O)[C@H](O)[C@H]1O [compound 24, Rutin]
[1]
  IC50: 33.1 ± 0.37 µM
[2]; [5]
  FRAP EC1: 205.0 ± 12.2 µM
[2]; mean ± SD, n = 3
  FRAP EC1: 205.0 ± 12.2 µM
[3]
  IC50: 222 ± 13.5 µM
[4]
  online ABTS radical scavenging (size of negative peaks at 734 nm): strongest ABTS radical scavengers
COX-2
  COX-2 inhibition (in words): great COX-2 inhibition
COX-2; 3.125 μM, single replicates
  inhibition at 3.125 µM: 23.1%
COX-2; 3.125 μM, single replicates, listed as T3, 3.125 µM
  COX-2 inhibition: 13.73% and 18.58%
COX-2; 6.25 μM, single replicates
  inhibition at 6.25 µM: 42.8%
COX-2; 6.25 μM, single replicates, listed as T3, 6.25 µM
  COX-2 inhibition: 37.16%
COX-2; 12.5 μM, single replicates, listed as T3, 12.5 µM
  COX-2 inhibition: 68.24% and 51.05% and 71.69%
COX-2; 25 μM, single replicates
  inhibition at 25 µM: 78%
COX-2; 25 μM, single replicates, listed as T3, 25 µM
  COX-2 inhibition: 72.08% and 76.61%
COX-2; 50 μM, single replicates
  inhibition at 50 µM: 81.2%
COX-2; 50 μM, single replicates, listed as T3, 50 µM
  COX-2 inhibition: 77.16% and 78.42%
COX-2; 100 μM, single replicates
  inhibition at 100 µM: 81.5%
COX-2; 100 μM, single replicates, listed as T3, 100 µM
  COX-2 inhibition: 79.28% and 81.06%
COX-2; 200 μM, single replicates
  inhibition at 200 µM: 84.3%
COX-2; 200 μM, single replicates, listed as T3, 200 µM
  COX-2 inhibition: 81.14% and 83.16%
DPPH· scavenging;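 further: colourimetric DPPH radical scavenging in 96-well plates, absorbance read-out, percent inhibition relative to ethanol control absorbance, IC50 derived graphically from dose-inhibition curves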
  IC50: 43.3 ± 1.75 µM

## O=C(O)CC(=O)OCC1OC(Oc2c(-c3ccc(O)c(O)c3)oc3cc(O)cc(O)c3c2=O)C(O)C(O)C1O (stereo not shown) [compound 27, Quercetin 3-O-(6″-malonyl-glucoside)]
[1]
  IC50: 28.4 ± 0.47 µM
[2]; [5]
  FRAP EC1: 826.7 ± 98.5 µM
[3]; 15.625 µM, listed as T11, 15.625 µM
  inhibition of fluorescent AGEs formation (BSA-抗糖化), single replicate: 10.51% and 15.35% and 23.11%
[3]; 15.625 µM
  inhibition of fluorescent AGEs formation (BSA-抗糖化), 平均 (mean): 16.32%
[3]; 31.25 µM, listed as T11, 31.25 µM
  inhibition of fluorescent AGEs formation (BSA-抗糖化), single replicate: 5.08% and 5.86% and 10.67%
[3]; 31.25 µM
  inhibition of fluorescent AGEs formation (BSA-抗糖化), 平均 (mean): 7.20%
[3]; 62.5 µM, listed as T11, 62.5 µM
  inhibition of fluorescent AGEs formation (BSA-抗糖化), single replicate: 17.13% and 15.89% and 16.80%
[3]; 62.5 µM
  inhibition of fluorescent AGEs formation (BSA-抗糖化), 平均 (mean): 16.61%
[3]; 125 µM, listed as T11, 125 µM
  inhibition of fluorescent AGEs formation (BSA-抗糖化), single replicate: 26.98% and 29.78% and 30.07%
[3]; 125 µM
  inhibition of fluorescent AGEs formation (BSA-抗糖化), 平均 (mean): 28.94%
[3]; 250 µM, listed as T11, 250 µM
  inhibition of fluorescent AGEs formation (BSA-抗糖化), single replicate: 45.50% and 47.09% and 47.76%
[3]; 250 µM
  inhibition of fluorescent AGEs formation (BSA-抗糖化), 平均 (mean): 46.78%
[3]; 500 µM, listed as T11, 500 µM
  inhibition of fluorescent AGEs formation (BSA-抗糖化), single replicate: 61.62% and 62.32% and 63.30%
[3]; 500 µM
  inhibition of fluorescent AGEs formation (BSA-抗糖化), 平均 (mean): 62.41%
[3]; 1000 µM, listed as T11, 1000 µM
  inhibition of fluorescent AGEs formation (BSA-抗糖化), single replicate: 77.56% and 77.94% and 77.85%
[3]; 1000 µM
  inhibition of fluorescent AGEs formation (BSA-抗糖化), 平均 (mean): 77.78%
[3]; 2000 µM, listed as T11, 2000 µM
  inhibition of fluorescent AGEs formation (BSA-抗糖化), single replicate: 88.53% and 88.63% and 88.83%
[3]; 2000 µM
  inhibition of fluorescent AGEs formation (BSA-抗糖化), 平均 (mean): 88.66%
[3]; 4000 µM (series head 'T9 4000µM', 2-fold dilutions), listed as T11
  inhibition of fluorescent AGEs formation (BSA-抗糖化), single replicate: 94.35% and 94.74% and 94.79%
[3]; 4000 µM
  inhibition of fluorescent AGEs formation (BSA-抗糖化), 平均 (mean): 94.62%
[3]
  IC50: 288 ± 17.9 µM
[4]
  online ABTS radical scavenging (size of negative peaks at 734 nm): strongest ABTS radical scavengers
COX-2
  COX-2 inhibition (in words): great COX-2 inhibition
COX-2; 3.125 μM, single replicates
  inhibition at 3.125 µM: 24.6%
COX-2; 3.125 μM, single replicates, listed as T11, 3.125 µM
  COX-2 inhibition: 20.59% and 27.90%
COX-2; 6.25 μM, single replicates, listed as T11, 6.25 µM
  COX-2 inhibition: 14.74% and 29.06% and 32.72%
COX-2; 12.5 μM, single replicates
  inhibition at 12.5 µM: 58.4%
COX-2; 12.5 μM, single replicates, listed as T11, 12.5 µM
  COX-2 inhibition: 54.43% and 66.15%
COX-2; 25 μM, single replicates
  inhibition at 25 µM: 71.8%
COX-2; 25 μM, single replicates, listed as T11, 25 µM
  COX-2 inhibition: 72.43% and 76.32%
COX-2; 50 μM, single replicates
  inhibition at 50 µM: 73.1%
COX-2; 50 μM, single replicates, listed as T11, 50 µM
  COX-2 inhibition: 74.00% and 78.80%
COX-2; 100 μM, single replicates
  inhibition at 100 µM: 77.6%
COX-2; 100 μM, single replicates, listed as T11, 100 µM
  COX-2 inhibition: 75.00% and 79.64%
COX-2; 200 μM, single replicates
  inhibition at 200 µM: 75.5%
COX-2; 200 μM, single replicates, listed as T11, 200 µM
  COX-2 inhibition: 78.98% and 87.56%
COX-2; mean ± SD, n = 3, nd, not detected, read-out: COX-2 IC50
  IC50: 12.5 ± 2.9 µM
COX-2; supplement sheet COX, read-out: COX-2 IC50, single replicate
  IC50: 13.5 µM and 9.23 µM and 14.8 µM
DPPH· scavenging;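 further: colourimetric DPPH radical scavenging in 96-well plates, absorbance read-out, percent inhibition relative to ethanol control absorbance, IC50 derived graphically from dose-inhibition curves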
  IC50: 24.7 ± 0.96 µM
